Consider 6 compounds from patent publication US8026245B2, “HIV replication inhibiting purine derivatives” (Janssen Pharmaceutica N.V., priority 2003, dated 2011).

One data set deals with mock-infected MT-4 cells. The format is cell-based.
For data set [1], the system named is HIV-1. Conditions: Method A; for pEC50 (−logEC50): MT-4 cells, HIV-infected, MTT, 50% protection; for pSI (pCC50-pEC50): selectivity index, ratio of CC50 to EC50. The procedure:
An […] T4-cell line, MT-4, which was previously shown (Koyanagi et al., Int. J. Cancer, 36, 445-451, 1985) to be highly susceptible to and permissive for HIV infection, served as the target cell line. Inhibition of the HIV-induced cytopathic effect was used as the end point. The viability of both HIV- and mock-infected cells was assessed spectrophotometrically via the in situ reduction of 3-(4,5-dimethylthiazol-2-yl)-2,5-diphenyltetrazolium bromide (MTT). The 50% cytotoxic concentration (CC50 in M) was defined as the concentration of compound that reduced the absorbance of the mock-infected control sample by 50%. The percent protection achieved by the compound in HIV-infected cells was calculated by the following formula:
[formula] whereby (ODT)HIV is the optical density measured with a given concentration of the test compound in HIV-infected cells; (ODC)HIV is the optical density measured for the control untreated HIV-infected cells; (ODC)MOCK is the optical density measured for the control untreated mock-infected cells; all optical density values were determined at 540 nm. The dose achieving 50% protection according to the above formula was defined as the 50% effective concentration (EC50 in M). The ratio of CC50 to EC50 was defined as the selectivity index (SI). Method B

The nature of data set [2]: Method B: cytotoxicity in mock-infected MT-4 cells engineered with GFP under a constitutional promotor. The format is cell-based. Conditions: human; Method B; mock-infected MT-4 cells with GFP, fluorescence reduced by 50%; read-out: pCC50 (−logCC50) (converted). The procedure: In these cells, engineered with GFP (and an HIV-specific promotor), ongoing HIV-infection was measured fluorometrically. Cytotoxicity is measured in the same cells, but engineered with GFP under a constitutional promotor. The infection (or inhibition thereof) of HIV infected cells and the fluorescence of mock-infected cells is assessed by the fluorescent GFP signal generated by the two above mentioned cell lines.
The 50% cytotoxic concentration (CC50 in μM) was defined as the concentration of compound that reduced fluorescence of the mock-infected cells by 50%.

For data set [3], the system named is HIV-1. Conditions: Method B; selectivity index, ratio of CC50 to EC50.
Data set [4] has as its system HIV-1. Nature of the data set: microbe, parasite or virus in culture. To be noted: Human immunodeficiency virus 1, MT4, read-out: pEC50 (−logEC50) (converted).

For `Cc1cc(C)c(Oc2nc(Nc3ccc(C#N)cc3)nc3[nH]cnc23)c(C)c1` [Compound 23], the “pCC50 (−logCC50)” value in the data set with mock-infected MT-4 cells is on record as less than 4.6. For the same compound, in the data set on HIV-1 [1], the “pEC50 (−logEC50)” value is listed as 8.2 M and the “pSI (pCC50-pEC50)” value is on record as less than −3.6.

In the case of `Cc1cc(C)c(Nc2nc(Nc3ccc(C#N)cc3)nc3[nH]cnc23)c(C)c1` [Compound 24], the “pCC50 (−logCC50)” value in the data set with mock-infected MT-4 cells is given as 4.3. Moreover, in the data set on HIV-1 [1], the “pEC50 (−logEC50)” value is reported as 8.4 M and the “pSI (pCC50-pEC50)” value is −4.1.

In the case of `COc1cc(C)c(Nc2nc(Nc3ccc(C#N)cc3)nc3[nH]cnc23)c(C)c1` [Compound 25], the “pCC50 (−logCC50)” value in the data set with mock-infected MT-4 cells is recorded as less than 4.5. Moreover, in the data set on HIV-1 [1], the “pEC50 (−logEC50)” value came to 8.5 M and the “pSI (pCC50-pEC50)” value is given as less than −4.

On to `CCN(C)C(=O)/C=C/c1cc(C)c(Oc2nc(Nc3ccc(C#N)cc3)nc3nc[nH]c23)c(C)c1` [Compound 5], for which the CC50 in data set [2] is 5010 nM. For the same compound, the “pSI (pEC50 − pCC50)” value in the data set with HIV-1 [3] is reported as −3.2. In addition, in the data set on HIV-1 [4], the EC50 was 3.16 nM.

`Cc1cc(C#N)cc(C)c1Oc1nc(Nc2ccc(C#N)cc2)nc2[nH]cnc12` [Compound 28]: in the data set with mock-infected MT-4 cells, the “pCC50 (−logCC50)” value is reported as less than 4.6. Besides, in the data set on HIV-1 [1], the “pEC50 (−logEC50)” value was 9.0 M and the “pSI (pCC50-pEC50)” value is less than −4.4.

As to `COc1ccc(Cn2cnc3c(Nc4c(C)cc(/C=C/C#N)cc4C)nc(Nc4ccc(C#N)cc4)nc32)cc1` [Compound 3], the CC50 in data set [2] was 1260 nM. Also, in the data set with HIV-1 [3], the “pSI (pEC50 − pCC50)” value was −2.6. For the same compound, the EC50 with HIV-1 [4] is 3.16 nM.
